Reference: patent publication US20070202192A1, “Fungical Mixtures For Controlling Rice Pathogens” (BASF AKTIENGESELLSCHAFT, priority 2003, published 2007)
Counter-ions that a name gives are not always drawn.

System: Cochliobolus miyabeanus
Assay: activity against brown spot of rice caused by Cochliobolus miyabeanus, protective application
Type: in vivo
Details: rice seedlings cultivar Tai-Nong 67, protective application, 6 days after inoculation
Procedure: 1% by weight of the emulsifier Uniperol® EL (wetting agent having emulsifying and dispersant action based on ethoxylated alkylphenols) was added to this solution, and the mixture was diluted with water to the desired concentration.
Use example—activity against brown spot of rice caused by Cochliobolus miyabeanus, protective application […]
The next day, the plants were inoculated with an aqueous spore suspension of Cochliobolus miyabeanus. The test plants were then placed in climatized chambers at 22-24° C. and 95-99% relative atmospheric humidity for 6 days. The extent of the development of the infection on the leaves was then determined visually.
Evaluation was carried out by determining the percentage of infected leaf area. These percentages were converted into efficacies.
The efficacy (E) is calculated as follows using Abbot's formula: E=(1−α/β)·100 α corresponds to the fungicidal infection of the treated plants in % and β corresponds to the fungicidal infection of the untreated (control) plants in % An efficacy of 0 means that the infection level of the treated plants corresponds to that of the untreated control plants; an efficacy of 100 means that the treated plants are not infected.

Row | Compound | Efficacy in % of the untreated control (4 ppm active compound in the spray liquor) [%] | Efficacy in % of the untreated control (1 ppm active compound in the spray liquor) [%] | Efficacy in % of the untreated control (16 ppm active compound in the spray liquor) [%]
1 | CC1CCN(c2c(-c3c(F)cc(F)cc3F)c(Cl)nc3ncnn23)CC1 [I, 5-chloro-7-(4-methylpiperidin-1-yl)-6-(2,4,6-trifluorophenyl)-[1,2,4]triazolo[1,5-a]pyrimidine] | 33 |  | 
2 | CCO[PH](=O)O [IIb (fosetyl-Al), ethyl phosphonate aluminum salt] |  | 0 | 0
